In EP0197829A1, “5H-pyrido[3',4':4,5]pyrrolo[3,2-c]pyridine derivatives, process for their preparation and their antitunour activity” (SANOFI, priority 1985, dated 1986):
Where two headings read alike, the source gives them in different places.

Tests used:
[1] = test system: leucémie L 1210; test: L 1210 leukemia test in vivo; design: species or system souris hybrides CDF1; conditions: for Survivants: at day J 60
Source text: (§1) L'activité antitumorale a été testée in vivo sur différentes tumeurs selon le protocole général suivant : Toutes les souris mâles ou femelles sont inoculées par voie intrapéritonéale au jour Jo avec une quantité déterminée de cellules tumorales viables, variable selon la tumeur.
(§2) Elles sont ensuite réparties en différents lots. Chaque lot correspondant aux animaux traités par le produit à tester à une dose déterminée est composé de lO souris. Dans ce cas, le produit à tester est dissous dans l'eau distillée et il est administré, pendant n jours (J1-Jn) variables selon le protocole choisi, par voie intrapéritonéale à raison de 0,1 ml par lO g de poids des souris traitées, les doses du produit administré étant précisées dans les tableaux ci-dessous.
(§3) Le lot "Contrôle négatif", correspondant aux animaux qui ne sont pas traités par un produit, comprend 2 √N animaux, N étant égal au nombre total de souris traitées par un produit.
(§4) Enfin, tous lés essais sont conduits parallèlement à l'étude d'un lot appelé "Contrôle positif" de 10 animaux qui est traité par une molécule active, variable selon le protocole choisi, dans les mêmes conditions que les lots traités par le produit à tester, afin de valider l'essai.
(§5) L'activité antitumorale est évaluée en considérant l'augmentation du temps de survie des animaux traités par rapport à celui des animaux du lot "Contrôle négatif" selon la formule : • Jour médian de survie des animaux traités à une T/C = dose donnée de produit x 100 • Jour médian de survie des animaux "Contrôle négatif"
(§6) Un composé est considéré comme étant actif lorsque la valeur du rapport T/C est égale ou supérieure à 125 % selon le protocole retenu. Il est toxique lorsque cette valeur est égale ou inférieure à 85 %. Le produit est également considéré comme toxique lorsque la variation pondérale, exprimée en grammes et calculée par la formule : Poids moyen du lot mesuré au jour 5 - poids moyen du même lot au jour 1, est égale ou inférieure à -4g . a) Test de la leucémie P 388 (GERAN et al., Cancer Chemother, 1972, 2, 07-57).
b) Test de la leucémie L 1210 (GERAN et al., Cancer Chemother, 1972, 2, 07-57).
Les essais sont effectués avec des souris hybrides CDF1 inoculées avec 10^5 cellules leucémiques de la lignée L 1210. Le composé à tester est administré pendant 5 jours (J1-J5). Le contrôle positif du test est le 5-fluorouracile administré dans les mêmes conditions. Le nombre d'animaux survivants est évalué au jour J 60. Un composé est considéré comme étant actif lorsque le rapport T/C est supérieur ou égal à 125 %.

[2] = test system: réticulosarcome M5-M5076; test: M5-M5076 reticulosarcoma test in vivo; design: species or system souris hybrides BDF1; conditions: for Survivants: at day J 75
Source text: as §1, §2, §3, §4, §5, §6
d) Test du réticulosarcome M5-M5076.
Les essais sont effectués avec des souris hybrides BDF1 inoculées avec 10^6 cellules de la lignée M5-M5076. Le composé à tester est administré 5 fois successivement de façon séquentielle (Jl, 5, 9, 13, 17). Le contrôle positif du test est le cyclophosphamide administré dans les mêmes conditions. Le nombre d'animaux survivants est évalué au jour J 75. Un composé est considéré comme actif lorsque le rapport T/C est supérieur ou égal à 125 %.

[3] = test system: leucémie P 388; format: in vivo, souris hybrides CDF1
Source text: as §1, §2, §3, §4, §5, §6
Les essais sont effectués avec des souris hybrides CDF1 inoculées par voie intrapéritonéale avec […] leucémiques de la lignée P 388. Le composé à tester est administré pendant 5 jours (Jl-J5). Le contrôle positif du test est le 5-fluorouracile qui est administré dans les mêmes conditions.
[…] Un composé est considéré comme étant actif lorsque le rapport T/C est supérieur à 127 %.

[4] = 100 mg/kg i.p. J1, 5, 9, 13, 17
[5] = 150 mg/kg i.p. J1, 5, 9, 13, 17
[6] = 5 mg/kg i.p. J1-J5, at day J 40
[7] = 10 mg/kg i.p. J1-J5, at day J 40
[8] = 20 mg/kg i.p. J1-J5, at day J 40
[9] = 40 mg/kg i.p. J1-J5, at day J 40
[10] = 80 mg/kg i.p. J1-J5, at day J 40
[11] = 1,25 mg/kg i.p. J1-J5, at day J 40
[12] = 2,5 mg/kg i.p. J1-J5, at day J 40

Cc1cnc(NCCCN(C)C)c2c1[nH]c1ccncc12 [Dérivé N° 3, [(diméthylamino-3 propyl-1)amino]-1 méthyl-4 5-H pyrido[3',4':4,5]pyrrolo[3,2-c]pyridine]
Jour médian de survie ([1]; 5 mg/kg i.p. J1-J5): 14,0
T/C % ([1]; 5 mg/kg i.p. J1-J5): 152%
Survivants ([1]; 5 mg/kg i.p. J1-J5): 0
Jour médian de survie ([1]; 10 mg/kg i.p. J1-J5): 16,25
T/C % ([1]; 10 mg/kg i.p. J1-J5): 177%
Survivants ([1]; 10 mg/kg i.p. J1-J5): 0
Jour médian de survie ([1]; 20 mg/kg i.p. J1-J5): 15,6
T/C % ([1]; 20 mg/kg i.p. J1-J5): 170%
Survivants ([1]; 20 mg/kg i.p. J1-J5): 0
Jour médian de survie ([1]; 40 mg/kg i.p. J1-J5): 9,25
T/C % ([1]; 40 mg/kg i.p. J1-J5): 100%
Survivants ([1]; 40 mg/kg i.p. J1-J5): 0
Jour médian de survie ([1]; 50 mg/kg i.p. J1-J5): 8,2
T/C % ([1]; 50 mg/kg i.p. J1-J5): 89%
Survivants ([1]; 50 mg/kg i.p. J1-J5): 0
Jour médian de survie ([1]; 1,25 mg/kg i.p. J1-J5): 11,75
T/C % ([1]; 1,25 mg/kg i.p. J1-J5): 128%
Survivants ([1]; 1,25 mg/kg i.p. J1-J5): 0
Jour médian de survie ([1]; 2,5 mg/kg i.p. J1-J5): 12,90
T/C % ([1]; 2,5 mg/kg i.p. J1-J5): 140%
Survivants ([1]; 2,5 mg/kg i.p. J1-J5): 0
Jour médian de survie ([2]; 25 mg/kg i.p. J1, 5, 9, 13, 17): 51,0
T/C % ([2]; 25 mg/kg i.p. J1, 5, 9, 13, 17): 195%
Survivants ([2]; 25 mg/kg i.p. J1, 5, 9, 13, 17): 1
Jour médian de survie ([2]; 50 mg/kg i.p. J1, 5, 9, 13, 17): 45,0
T/C % ([2]; 50 mg/kg i.p. J1, 5, 9, 13, 17): 172%
Survivants ([2]; 50 mg/kg i.p. J1, 5, 9, 13, 17): 0
Jour médian de survie ([2]; 75 mg/kg i.p. J1, 5, 9, 13, 17): 41,7
T/C % ([2]; 75 mg/kg i.p. J1, 5, 9, 13, 17): 159%
Survivants ([2]; 75 mg/kg i.p. J1, 5, 9, 13, 17): 0
Jour médian de survie [2, 4]: 44,7
T/C % [2, 4]: 171%
Survivants [2, 4]: 0
Jour médian de survie [2, 5]: 10,0
T/C % [2, 5]: 38%
Survivants [2, 5]: 0
Jour médian de survie ([3]; 5 mg/kg i.p. J1-J5): 16,25
T/C % ([3]; 5 mg/kg i.p. J1-J5): 147%
Survivants [3, 6]: 0
Jour médian de survie ([3]; 10 mg/kg i.p. J1-J5): 17,75
T/C % ([3]; 10 mg/kg i.p. J1-J5): 161%
Survivants [3, 7]: 0
Jour médian de survie ([3]; 20 mg/kg i.p. J1-J5): 20,0
T/C % ([3]; 20 mg/kg i.p. J1-J5): 181%
Survivants [3, 8]: 0
Jour médian de survie ([3]; 40 mg/kg i.p. J1-J5): 19,3
T/C % ([3]; 40 mg/kg i.p. J1-J5): 175%
Survivants [3, 9]: 1
Jour médian de survie ([3]; 80 mg/kg i.p. J1-J5): 7,3
T/C % ([3]; 80 mg/kg i.p. J1-J5): 66%
Survivants [3, 10]: 0
Jour médian de survie ([3]; 0,625 mg/kg i.p. J1-J5): 13,1
T/C % ([3]; 0,625 mg/kg i.p. J1-J5): 119%
Survivants ([3]; 0,625 mg/kg i.p. J1-J5, at day J 40): 0
Jour médian de survie ([3]; 1,25 mg/kg i.p. J1-J5): 14,1
T/C % ([3]; 1,25 mg/kg i.p. J1-J5): 128%
Survivants [3, 11]: 0
Jour médian de survie ([3]; 2,5 mg/kg i.p. J1-J5): 15,0
T/C % ([3]; 2,5 mg/kg i.p. J1-J5): 136%
Survivants [3, 12]: 0

CCN(CC)CCCNc1ncc(C)c2c1c1cnccc1n2C [Dérivé N° 4, [(diéthylamino-3 propyl-1)amino]-1 diméthyl-4,5 5-H pyrido[3',4':4,5]pyrrolo[3,2-c]pyridine]
Jour médian de survie ([1]; 5 mg/kg i.p. J1-J5): 12,75
T/C % ([1]; 5 mg/kg i.p. J1-J5): 138%
Survivants ([1]; 5 mg/kg i.p. J1-J5): 0
Jour médian de survie ([1]; 15 mg/kg i.p. J1-J5): 13,75
T/C % ([1]; 15 mg/kg i.p. J1-J5): 149%
Survivants ([1]; 15 mg/kg i.p. J1-J5): 0
Jour médian de survie ([1]; 30 mg/kg i.p. J1-J5): 17,25
T/C % ([1]; 30 mg/kg i.p. J1-J5): 188%
Survivants ([1]; 30 mg/kg i.p. J1-J5): 0
Jour médian de survie ([1]; 60 mg/kg i.p. J1-J5): 18,0
T/C % ([1]; 60 mg/kg i.p. J1-J5): 196%
Survivants ([1]; 60 mg/kg i.p. J1-J5): 1
Jour médian de survie ([1]; 80 mg/kg i.p. J1-J5): 9,1
T/C % ([1]; 80 mg/kg i.p. J1-J5): 99%
Survivants ([1]; 80 mg/kg i.p. J1-J5): 0
Jour médian de survie ([1]; 2,5 mg/kg i.p. J1-J5): 10,9
T/C % ([1]; 2,5 mg/kg i.p. J1-J5): 118%
Survivants ([1]; 2,5 mg/kg i.p. J1-J5): 0
Jour médian de survie ([2]; 10 mg/kg i.p. J1, 5, 9, 13, 17): 28,3
T/C % ([2]; 10 mg/kg i.p. J1, 5, 9, 13, 17): 108%
Survivants ([2]; 10 mg/kg i.p. J1, 5, 9, 13, 17): 0
Jour médian de survie ([2]; 25 mg/kg i.p. J1, 5, 9, 13, 17): 41,75
T/C % ([2]; 25 mg/kg i.p. J1, 5, 9, 13, 17): 159%
Survivants ([2]; 25 mg/kg i.p. J1, 5, 9, 13, 17): 1
Jour médian de survie ([2]; 50 mg/kg i.p. J1, 5, 9, 13, 17): 53,0
T/C % ([2]; 50 mg/kg i.p. J1, 5, 9, 13, 17): 202%
Survivants ([2]; 50 mg/kg i.p. J1, 5, 9, 13, 17): 4
Jour médian de survie [2, 4]: 48,0
T/C % [2, 4]: 182%
Survivants [2, 4]: 2
Jour médian de survie [2, 5]: 14,0
T/C % [2, 5]: 53%
Survivants [2, 5]: 0
Jour médian de survie ([3]; 5 mg/kg i.p. J1-J5): 14,25
T/C % ([3]; 5 mg/kg i.p. J1-J5): 130%
Survivants [3, 6]: 0/10
Jour médian de survie ([3]; 10 mg/kg i.p. J1-J5): 16,13
T/C % ([3]; 10 mg/kg i.p. J1-J5): 147%
Survivants [3, 7]: 0/10
Jour médian de survie ([3]; 20 mg/kg i.p. J1-J5): 18,0
T/C % ([3]; 20 mg/kg i.p. J1-J5): 164%
Survivants [3, 8]: 0/10
Jour médian de survie ([3]; 40 mg/kg i.p. J1-J5): 18,75
T/C % ([3]; 40 mg/kg i.p. J1-J5): 172%
Survivants [3, 9]: 0/10
Jour médian de survie ([3]; 50 mg/kg i.p. J1-J5): 25
T/C % ([3]; 50 mg/kg i.p. J1-J5): 207%
Survivants ([3]; 50 mg/kg i.p. J1-J5, à J 42): 3/10 à J 42
Jour médian de survie ([3]; 80 mg/kg i.p. J1-J5): 8,9
T/C % ([3]; 80 mg/kg i.p. J1-J5): 81%
Survivants [3, 10]: 0/10
Jour médian de survie ([3]; 1,25 mg/kg i.p. J1-J5): 12,6
T/C % ([3]; 1,25 mg/kg i.p. J1-J5): 115%
Survivants [3, 11]: 0/10
Jour médian de survie ([3]; 2,5 mg/kg i.p. J1-J5): 14,25
T/C % ([3]; 2,5 mg/kg i.p. J1-J5): 130%
Survivants [3, 12]: 0/10
